Test results: ChEMBL document CHEMBL1201862, “PubChem BioAssay data set” (2004)
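All cell lines were grown in 96-well plates and treated with compound for 48 hours. Abbreviation: GI50, concentration required for 50% inhibition of growth.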 The source made the active and inactive calls. Cut-off read from the data, not from the text of the source: active = GI50 up to about 1.1 µM and inactive = higher.

Assays:
Assay in all cases: DTP human tumour cell line panel, 48 h
[1] = test system: HOP-92
[2] = test system: A549
[3] = test system: Malme-3M
[4] = test system: SK-MEL-5
[5] = test system: SK-MEL-2
[6] = test system: HOP-62
[7] = test system: UACC-257
[8] = test system: SW-620
[9] = test system: NCI-H226
[10] = test system: K562
[11] = test system: SK-MEL-28
[12] = test system: EKVX
[13] = test system: U-251
[14] = test system: SF-268
[15] = test system: Hs-578T
[16] = test system: OVCAR-3
[17] = test system: UO-31
[18] = test system: HT-29
[19] = test system: MCF7
[20] = test system: HCT-15

Structure (SMILES) | GI50 [1] | GI50 [2] | GI50 [3] | GI50 [4] | GI50 [5] | GI50 [6] | GI50 [7] | GI50 [8] | GI50 [9] | GI50 [10] | GI50 [11] | GI50 [12] | GI50 [13] | GI50 [14] | GI50 [15] | GI50 [16] | GI50 [17] | GI50 [18] | GI50 [19] | GI50 [20]
CCSc1nc(=S)n(-c2ccccc2)c(C)c1C(C)=O | > 100 µM (inactive) | > 100 µM (inactive) | > 100 µM (inactive) | > 100 µM (inactive) | > 100 µM (inactive) | > 100 µM (inactive) | > 100 µM (inactive) | > 100 µM (inactive) | > 100 µM (inactive) | > 100 µM (inactive) | > 100 µM (inactive) | > 100 µM (inactive) | > 100 µM (inactive) | > 100 µM (inactive) | > 100 µM (inactive) | > 100 µM (inactive) | > 100 µM (inactive) | > 100 µM (inactive) | > 100 µM (inactive) | > 100 µM
Nc1nc(-c2cc(-c3cccc4ccccc34)nc(N)n2)cc(-c2cccc3ccccc23)n1 | > 100 µM (inactive) | > 100 µM (inactive) | > 100 µM (inactive) | > 100 µM (inactive) | > 100 µM (inactive) | > 100 µM (inactive) | > 100 µM (inactive) | > 100 µM (inactive) | > 100 µM (inactive) | > 100 µM (inactive) | > 100 µM (inactive) | > 100 µM (inactive) | > 100 µM (inactive) | > 100 µM (inactive) | > 100 µM (inactive) | > 100 µM (inactive) | > 100 µM (inactive) | > 100 µM (inactive) | > 100 µM (inactive) | > 100 µM
O=C(O)CN1CCN2CCOCCN(CC1)CCN(CC(=O)O)CC2 | > 100 µM (inactive) | > 100 µM (inactive) | > 100 µM (inactive) | > 100 µM (inactive) | > 100 µM (inactive) | > 100 µM (inactive) | > 100 µM (inactive) | > 100 µM (inactive) | > 100 µM (inactive) | > 100 µM (inactive) | > 100 µM (inactive) | > 100 µM (inactive) | > 100 µM (inactive) | > 100 µM (inactive) | > 100 µM (inactive) | > 100 µM (inactive) | > 100 µM (inactive) | > 100 µM (inactive) | > 100 µM (inactive) | > 100 µM
CCOC(=O)C1=C(C)OC2(O)C=CC(O)=C3C(=O)N(c4ccccc4)C(=O)C312 (stereo not drawn) | 21 µM (inactive) | > 100 µM (inactive) | 20 µM (inactive) | – | 30.5 µM (inactive) | 53.5 µM (inactive) | 39.1 µM (inactive) | – | 34.2 µM (inactive) | 32.7 µM (inactive) | 22.5 µM (inactive) | 54 µM (inactive) | 35.7 µM (inactive) | 38.7 µM (inactive) | 32.9 µM (inactive) | 61.9 µM (inactive) | 24.4 µM (inactive) | 29.3 µM (inactive) | 29.6 µM (inactive) | 30.6 µM
CC1OC(OC2C(Oc3cc(O)c4c(c3)O[C@H](c3ccc(O)cc3)CC4=O)OC(CO)C(O)C2O)C(O)C(O)C1O (stereo partly drawn) | > 100 µM (inactive) | > 100 µM (inactive) | > 100 µM (inactive) | > 100 µM (inactive) | > 100 µM (inactive) | > 100 µM (inactive) | > 100 µM (inactive) | > 100 µM (inactive) | > 100 µM (inactive) | – | > 100 µM (inactive) | > 100 µM (inactive) | > 100 µM (inactive) | > 100 µM (inactive) | > 100 µM (inactive) | > 100 µM (inactive) | > 100 µM (inactive) | > 100 µM (inactive) | > 100 µM (inactive) | > 100 µM
N#Cc1nc(C(O)c2ccccc2)oc1N (stereo not drawn) | > 100 µM (inactive) | > 100 µM (inactive) | > 100 µM (inactive) | > 100 µM (inactive) | > 100 µM (inactive) | > 100 µM (inactive) | > 100 µM (inactive) | > 100 µM (inactive) | > 100 µM (inactive) | > 100 µM (inactive) | > 100 µM (inactive) | > 100 µM (inactive) | > 100 µM (inactive) | > 100 µM (inactive) | > 100 µM (inactive) | > 100 µM (inactive) | > 100 µM (inactive) | > 100 µM (inactive) | > 100 µM (inactive) | –
CC1(C)CC[C@]2(C(=O)O)CC[C@]3(C)C(=CC[C@@H]4[C@@]5(C)CC[C@H](OC6OC(C(=O)O)C(O)C(O)C6O)C(C)(C)[C@@H]5CC[C@]43C)[C@@H]2C1 (stereo partly drawn) | 13.1 µM (inactive) | 18.8 µM (inactive) | 18.1 µM (inactive) | 19.1 µM (inactive) | 15.4 µM (inactive) | 18.8 µM (inactive) | 16.4 µM (inactive) | 17.4 µM (inactive) | 18.5 µM (inactive) | 17 µM (inactive) | 19.6 µM (inactive) | 24.5 µM (inactive) | 14.9 µM (inactive) | 17.3 µM (inactive) | 21.5 µM (inactive) | 14.2 µM (inactive) | 19.5 µM (inactive) | 15.1 µM (inactive) | 24.9 µM (inactive) | 16.9 µM
CC(C)(Cl)C(Br)CC/C(=C/CCl)CBr.CC(C)(Cl)C(Br)CC/C(=C\CCl)CBr (stereo not drawn) | 2.07 µM (inactive) | 14.4 µM (inactive) | 1.71 µM (inactive) | 3.1 µM (inactive) | 3.21 µM (inactive) | 4.1 µM (inactive) | 2.5 µM (inactive) | 1.92 µM (inactive) | 18.7 µM (inactive) | 1.72 µM (inactive) | 2.06 µM (inactive) | 8.97 µM (inactive) | 2.21 µM (inactive) | 1.8 µM (inactive) | 3.67 µM (inactive) | 1.87 µM (inactive) | 1.6 µM (inactive) | 1.85 µM (inactive) | 0.733 µM (active) | 1.43 µM
CC(NC(=O)C(N)CC(=O)O)NC(=O)N1CCCC1 (stereo not drawn) | > 100 µM (inactive) | > 100 µM (inactive) | > 100 µM (inactive) | > 100 µM (inactive) | > 100 µM (inactive) | > 100 µM (inactive) | > 100 µM (inactive) | > 100 µM (inactive) | > 100 µM (inactive) | > 100 µM (inactive) | > 100 µM (inactive) | > 100 µM (inactive) | > 100 µM (inactive) | > 100 µM (inactive) | > 100 µM (inactive) | > 100 µM (inactive) | > 100 µM (inactive) | > 100 µM (inactive) | > 100 µM (inactive) | > 100 µM
Nc1nc(N)c(N=O)c(Nc2ccc(O)cc2)n1 | 20.8 µM (inactive) | > 81.3 µM (inactive) | 33.4 µM (inactive) | 26.5 µM (inactive) | > 62.1 µM (inactive) | 37.5 µM (inactive) | > 66.8 µM (inactive) | > 60.5 µM (inactive) | 23.7 µM (inactive) | > 45.6 µM (inactive) | 11.5 µM (inactive) | > 69.8 µM (inactive) | > 52 µM (inactive) | 38 µM (inactive) | 13.7 µM (inactive) | 47.2 µM (inactive) | 41.5 µM (inactive) | 18 µM (inactive) | 5.97 µM (inactive) | > 57.3 µM
O=[N+]([O-])c1cc(Cl)cc2cc(Br)cnc12 | 5.46 µM (inactive) | > 31.6 µM (inactive) | > 31.6 µM (inactive) | 16.7 µM (inactive) | 39.9 µM (inactive) | > 31.6 µM (inactive) | 31.1 µM (inactive) | – | 29.6 µM (inactive) | > 31.6 µM (inactive) | > 31.6 µM (inactive) | > 31.6 µM (inactive) | 20.1 µM (inactive) | > 10 µM (inactive) | 17.6 µM (inactive) | > 31.6 µM (inactive) | > 31.6 µM (inactive) | > 31.6 µM (inactive) | > 31.6 µM (inactive) | > 31.6 µM
O=c1oc2ccccc2c(Nc2ccc3c(c2)Sc2ccccc2O3)c1[N+](=O)[O-] | 20.7 µM (inactive) | 21.1 µM (inactive) | 21.2 µM (inactive) | 15.8 µM (inactive) | 20.5 µM (inactive) | 29.4 µM (inactive) | 18.5 µM (inactive) | – | 23.2 µM (inactive) | 20 µM (inactive) | 16.2 µM (inactive) | 22.9 µM (inactive) | 18.5 µM (inactive) | 33.6 µM (inactive) | 30.9 µM (inactive) | 17.1 µM (inactive) | 25.6 µM (inactive) | 23.9 µM (inactive) | 18.7 µM (inactive) | 25.1 µM
CCOC(=O)C1=NOC2(C=C(Br)C(=O)C(Br)=C2)C1 | 1.82 µM (inactive) | 22 µM (inactive) | 0.625 µM (active) | 7.67 µM (inactive) | 6.84 µM (inactive) | 6.41 µM (inactive) | 1.34 µM (inactive) | 0.37 µM (active) | 25.8 µM (inactive) | 1.37 µM (inactive) | 6.75 µM (inactive) | 2.22 µM (inactive) | 9.93 µM (inactive) | 14.8 µM (inactive) | 22.1 µM (inactive) | 1.39 µM (inactive) | 1.09 µM (active) | 1.97 µM (inactive) | 2.45 µM (inactive) | 2.03 µM
COc1ccc2[nH]c3c(c2c1)CC(=O)N1CCC[C@H](C1)CC31OCCCO1 | 55 µM (inactive) | > 100 µM (inactive) | > 100 µM (inactive) | > 100 µM (inactive) | > 100 µM (inactive) | > 100 µM (inactive) | > 100 µM (inactive) | > 100 µM (inactive) | > 100 µM (inactive) | – | > 100 µM (inactive) | > 100 µM (inactive) | > 100 µM (inactive) | > 100 µM (inactive) | 86.7 µM (inactive) | > 100 µM (inactive) | > 100 µM (inactive) | > 100 µM (inactive) | > 100 µM (inactive) | > 100 µM
